This is an account of results in US9115134B2, “6-triazolopyridazine sulfanyl benzothiazole derivatives as MET inhibitors” (SANOFI, priority 2007, dated 2015).

The structures appear in SMILES notation. A value given as a limit tells only on which side of the number the result lay.

The test system of experiment [1] is HCT116 cells, MKN45 cells. The experiment can be described thus: Test C: Measurement of cell proliferation by 14C-thymidine pulse. The class given is cell-based. The settings on record: 14C-thymidine incorporation, 96 h of treatment; cell line not given. An outline of the steps:
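HCT116 (2500/well, DMEM) and MKN45 (7500/well, RPMI), both with 10% FCS, treated after 4 h with 10 concentrations from 10 000 to 0.3 nM (3-fold, duplicate). ¹⁴C-thymidine (0.1 μCi/well) added at 72 h; incorporation read after 24 h pulse, 96 h total treatment.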

Experiment [2] concerns the target T1, MET (Homo sapiens, UniProt P08581). The experiment can be described thus: Test B: Inhibition of the autophosphorylation of MET; ELISA technique (pppY1230,1234,1235) in MKN45 cells. The class given is cell-based. Also noted: Seed MKN45 cells into 96-well plates (Cell coat BD polylysine) at 20 000 cells/well; endogenous in cells; host or cells: MKN45 cells. The settings on record: 1 h treatment, PhosphoMET ELISA. In short, it runs like this:
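Adhered cells treated 1 h with six compound concentrations in duplicate, final 10 000 to 30 nM, against DMSO controls. Cells then lysed at 4° C for 30 min in Triton/SDS/deoxycholate buffer with phosphatase inhibitors. Phospho-MET measured by sandwich ELISA with anti-phospho MET antibody and HRP detection, absorbance at 450 nm.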
Target sequence in this assay (P08581 25-1390): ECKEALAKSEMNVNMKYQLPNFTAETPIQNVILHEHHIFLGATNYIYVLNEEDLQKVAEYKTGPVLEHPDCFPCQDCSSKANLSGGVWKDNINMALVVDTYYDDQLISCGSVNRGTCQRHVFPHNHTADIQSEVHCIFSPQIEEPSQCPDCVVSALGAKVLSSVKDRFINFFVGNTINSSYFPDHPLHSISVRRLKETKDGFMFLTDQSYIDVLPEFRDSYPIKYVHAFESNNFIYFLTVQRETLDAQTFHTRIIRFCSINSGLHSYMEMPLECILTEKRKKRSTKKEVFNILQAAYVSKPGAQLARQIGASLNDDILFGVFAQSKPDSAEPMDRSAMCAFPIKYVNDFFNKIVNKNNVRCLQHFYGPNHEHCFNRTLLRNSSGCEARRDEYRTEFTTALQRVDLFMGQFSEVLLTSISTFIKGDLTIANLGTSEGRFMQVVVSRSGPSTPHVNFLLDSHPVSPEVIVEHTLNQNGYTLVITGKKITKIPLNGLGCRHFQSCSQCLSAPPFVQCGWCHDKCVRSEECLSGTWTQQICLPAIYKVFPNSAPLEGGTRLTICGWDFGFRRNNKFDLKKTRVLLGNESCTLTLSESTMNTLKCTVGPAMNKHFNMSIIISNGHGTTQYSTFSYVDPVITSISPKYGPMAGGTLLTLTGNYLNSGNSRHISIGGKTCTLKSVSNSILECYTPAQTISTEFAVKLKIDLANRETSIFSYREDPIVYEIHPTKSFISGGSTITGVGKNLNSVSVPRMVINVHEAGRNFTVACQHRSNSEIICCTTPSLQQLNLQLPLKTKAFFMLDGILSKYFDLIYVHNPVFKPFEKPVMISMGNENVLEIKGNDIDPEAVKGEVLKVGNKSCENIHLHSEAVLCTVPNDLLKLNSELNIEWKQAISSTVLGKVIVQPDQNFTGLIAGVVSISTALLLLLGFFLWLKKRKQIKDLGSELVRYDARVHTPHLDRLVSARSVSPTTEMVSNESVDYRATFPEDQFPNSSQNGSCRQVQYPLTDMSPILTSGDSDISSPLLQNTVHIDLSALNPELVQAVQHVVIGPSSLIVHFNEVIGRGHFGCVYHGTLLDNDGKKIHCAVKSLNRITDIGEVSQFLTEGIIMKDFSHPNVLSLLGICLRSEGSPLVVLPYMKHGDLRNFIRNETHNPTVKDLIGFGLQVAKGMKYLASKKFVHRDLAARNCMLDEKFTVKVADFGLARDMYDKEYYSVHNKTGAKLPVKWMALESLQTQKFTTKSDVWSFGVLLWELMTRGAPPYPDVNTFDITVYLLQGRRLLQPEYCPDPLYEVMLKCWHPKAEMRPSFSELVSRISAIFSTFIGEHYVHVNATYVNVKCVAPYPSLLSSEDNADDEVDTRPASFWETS

Experiment [3] addresses T1, MET. In words: Test A: HTRF MET assay in 96-well format. The class given is biochemical. Set-up: The His-Tev-MET (956-1390) recombinant DNA in pFastBac (Invitrogen) is transfected into insect cells; His tag (N, cleaved yes); TEV cleavage site (N); made in house; host or cells: SF21 insect cells (baculovirus, pFastBac). Particulars: MET 5 nM, 10 μM ATP. An outline of the steps: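 Purified human MET cytoplasmic domain (956-1390, His tag cleaved), 5 nM, with compound (0.17 nM–10 μM, 3% DMSO) in MOPS pH 7.4; 1 μg/ml poly-(GAT), 10 μM ATP, 5 mM MgCl2, 10 min at ambient temperature. HTRF read-out (streptavidin-XL/anti-pTyr Eu cryptate, 2 h); % inhibition from 665/620 ratios.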
Target sequence in this assay (P08581 956-1390): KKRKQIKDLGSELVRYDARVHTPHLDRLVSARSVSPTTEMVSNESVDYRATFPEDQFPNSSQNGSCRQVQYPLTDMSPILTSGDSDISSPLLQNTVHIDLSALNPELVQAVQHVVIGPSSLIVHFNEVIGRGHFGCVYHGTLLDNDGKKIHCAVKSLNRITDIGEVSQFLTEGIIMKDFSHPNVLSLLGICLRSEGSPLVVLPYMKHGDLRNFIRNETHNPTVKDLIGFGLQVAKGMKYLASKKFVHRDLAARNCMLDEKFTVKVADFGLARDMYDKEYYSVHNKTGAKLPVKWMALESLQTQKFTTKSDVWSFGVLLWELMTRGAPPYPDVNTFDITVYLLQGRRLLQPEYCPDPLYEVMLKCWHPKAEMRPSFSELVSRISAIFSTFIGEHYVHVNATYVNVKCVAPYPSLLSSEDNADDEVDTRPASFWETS

Consider `CCOc1ccc2nnc(Sc3ccc4nc(NC(=O)NCCN5CCOCC5)sc4c3)n2n1` [Example 37, 1-{6-[(6-Ethoxy[1,2,4]triazolo[4,3-b]pyridazin-3-yl)sulphanyl]-1,3-benzothiazol-2-yl}-3-[2-(morpholin-4-yl)ethyl]urea], for which the half-maximal inhibitory concentration (IC50) (commonly the concentration that inhibits the measured activity by half) is less than 1000 nM in experiment [1], less than 100 nM in experiment [2] and less than 100 nM in experiment [3].

Turning to `CCOC1=Nn2c(nnc2Sc2ccc3nc(NC(=O)NCCN4CCOCC4)sc3c2)CC1` [Example 38, 1-{6-[(6-Ethoxy-7,8-dihydro[1,2,4]triazolo[4,3-b]pyridazin-3-yl)sulphanyl]-1,3-benzothiazol-2-yl}-3-[2-(morpholin-4-yl)ethyl]urea], the IC50 in experiment [1] was less than 1000 nM; in experiment [2], less than 100 nM; in experiment [3], less than 100 nM.

Consider `COCCNc1ccc2nnc(Sc3ccc4nc(NC(=O)CCCN5CCOCC5)sc4c3)n2n1` [Example 39, N-[6-({6-[(2-Methoxyethyl)amino][1,2,4]triazolo[4,3-b]pyridazin-3-yl}sulphanyl)-1,3-benzothiazol-2-yl]-4-(morpholin-4-yl)butanamide], for which the IC50 in experiment [1] was less than 1000 nM; in experiment [2], less than 100 nM; in experiment [3], less than 100 nM.

In the case of `COCCNc1ccc2nnc(Sc3ccc4nc(NC(=O)C5CC5)sc4c3)n2n1` [Example 40, N-[6-({6-[(2-Methoxyethyl)amino][1,2,4]triazolo[4,3-b]pyridazin-3-yl}sulphanyl)-1,3-benzothiazol-2-yl]cyclopropanecarboxamide], the IC50 in experiment [1] is less than 1000 nM; in experiment [2] it was less than 100 nM; in experiment [3], less than 100 nM.

As to `CC(=O)Nc1nc2ccc(Sc3nnc4ccc(-c5ccc(F)cc5)nn34)cc2s1` [Example 41, N-(6-{[6-(4-Fluorophenyl)[1,2,4]triazolo[4,3-b]pyridazin-3-yl]sulphanyl}-1,3-benzothiazol-2-yl)acetamide], the concentration for half-maximal inhibition (IC50) was less than 1000 nM in experiment [1], less than 100 nM in experiment [2] and less than 100 nM in experiment [3].

Regarding `O=C(NCC[N+]1([O-])CCOCC1)Nc1nc2ccc(Sc3nnc4ccc(-c5ccc(F)cc5)nn34)cc2s1` [Example 42, 1-(6-{[6-(4-Fluorophenyl)[1,2,4]triazolo[4,3-b]pyridazin-3-yl]sulphanyl}-1,3-benzothiazol-2-yl)-3-[2-(4-oxidomorpholin-4-yl)ethyl]urea], the IC50 in experiment [1] is less than 1000 nM; in experiment [2], less than 100 nM; in experiment [3] it was less than 100 nM.

In the case of `Cn1cc(-c2ccc3nnc(Sc4ccc5nc(N)sc5c4)n3n2)cn1` [Example 43, 6-{[6-(1-Methyl-1H-pyrazol-4-yl)[1,2,4]triazolo[4,3-b]pyridazin-3-yl]sulphanyl}-1,3-benzothiazol-2-amine], the IC50 in experiment [1] is less than 1000 nM; in experiment [2] it was less than 100 nM; in experiment [3], less than 100 nM.

Turning to `O=C(NCCN1CCOCC1)Nc1nc2ccc(Sc3nnc4n3N=C(c3ccc(F)cc3)CC4)cc2s1` [Example 44, 1-(6-{[6-(4-Fluorophenyl)-7,8-dihydro-[1,2,4]triazolo[4,3-b]pyridazin-3-yl]sulphanyl}-1,3-benzothiazol-2-yl)-3-[2-(morpholin-4-yl)ethyl]urea], the IC50 in experiment [1] is less than 1000 nM; in experiment [2], less than 100 nM; in experiment [3], less than 100 nM.

`CCOC(=O)Nc1nc2ccc(Sc3nnc4ccc(OC)nn34)cc2s1` [Example 45, Ethyl {6-[(6-methoxy[1,2,4]triazolo[4,3-b]pyridazin-3-yl)sulphanyl]-1,3-benzothiazol-2-yl}carbamate]: the IC50 in experiment [1] was less than 1000 nM; in experiment [2], 100 to 500 nM; in experiment [3], less than 100 nM.

As for `COCCCOC(=O)Nc1nc2ccc(Sc3nnc4ccc(OC)nn34)cc2s1` [Example 46, 3-Methoxypropyl {6-[(6-methoxy[1,2,4]triazolo[4,3-b]pyridazin-3-yl)sulphanyl]-1,3-benzothiazol-2-yl}carbamate], the values for the concentration for half-maximal inhibition (IC50) in experiment [1], in experiment [2] and in experiment [3] were less than 1000 nM, 100 to 500 nM and less than 100 nM, respectively.
